Here are results for 2 molecules from patent publication US20140364454A1, “METAL-CHELATING COMPOUNDS HAVING AT LEAST ONE POLYAMINO CHAIN” (UNIVERSITE DE RENNES I, priority 2011, published 2014).

The IC50 is the concentration needed to halve the response being measured.

For series [1], the system named is HepG2 cells. In words: Cytotoxic effect on HepG2 cells, LDH release. In kind it is cell-based, human. The settings on record: for influence of exogenous iron on the cytotoxic effect: HepG2, presence of exogenous iron. On the procedure:
(§1) The implication of PTS in the cytostatic and cytotoxic action of Quilamines was analyzed in proliferating HepG2 hepatocyte tumor cells after activation of PTS or competitive inhibition of PTS by spermidine, a polyamine naturally present in the organism and most efficaciously captured by the PTS. The conditions of treatment by Quilamines are identical to those described in paragraph III-1.
(§2) Inhibiting ornithine decarboxylase (ODC), the key enzyme in the biosynthesis of polyamines, causes a depletion of intra-cell polyamines and an activation of PTS which enables the deficiency to be met. This activation of PTS is done by means of the ODC inhibitor, alpha-difluoromethyl ornithine (DFMO).
(§3) The competitive inhibition of PTS by spermidine is prompted by the co-treatment of the cells by the Quilamines in the presence of spermidine, in a concentration of 50 micromoles per liter.

Series [2] relates to HepG2 cells. In words: Anti-proliferative effect on HepG2 cells (nuclei count or SDH activity). The settings on record: HepG2, presence of exogenous iron. The format is cell-based, human.
Series [3] relates to HepG2 cells. The series is described as above. In kind it is cell-based, human. The settings on record: for IC50: Homo sapiens, HepG2, absence of exogenous iron, read-out: IC50 associated with the cytostatic effect; for IC50 / % of HepG2 cells concerned by the anti-proliferative effect: 72 h; for % of HepG2 cells concerned by the anti-proliferative effect: absence of exogenous iron.
From the text: The majority of the Quilamines, like ICL670, show biphase dose-effect curves in the absence of exogenous iron, with an anti-proliferative constituent for concentration values of 1 to 10 micromoles per liter and a cytotoxic constituent associated with a release of LDH for concentration values of over 10 micromoles per liter. The percentage of HepG2 cells concerned by the anti-proliferative effect and the values of IC50 associated with this cytostatic effect in the absence of exogenous iron were listed in the table 4 below.
as §1, §2, §3

A further series concerns Caco-2 cells. The experiment in a line: Biochemical analysis of intra-cell iron, L-ferritin and transferrin soluble receptor in Caco-2 cells. The format is cell-based, human. The settings on record: 72 hours; for intra-cell iron and L-ferritin concentrations: Caco-2, 10 micromoles per liter; for transferrin-soluble receptor: Caco-2 supernatant, 10 micromoles per liter. On the procedure:
After treatment for 72 hours of the Caco-2 cells in proliferative phase by Quilamine HQ1-44 and ICL670, biochemical analysis is carried out on the intra-cell iron (Fe2+ and Fe3+), of the two main proteins for regulating iron metabolism by the dosing of the intra-cell concentrations in L-ferritin, the iron storage protein, as well as the analysis of the transferrin soluble receptor the cell supernatant, which is a marker of the concentration in transferrin receptor, the iron importing protein of the membrane.

The subject of a further series is CHO cells. The experiment in a line: Cytotoxic effect on CHO cells, LDH release in supernatants. The settings on record: hamster, 72 h. On the procedure:
The in vitro efficacy of different Quilamines was tested on a wild cell line (CHO) of hamster ovarian cells having PTS and a mutant cell line CHO-MG without PTS. The two cell types CHO and CHO-MG were treated, 24 hours after being seeded in 96-well microplates, by concentrations of different Quilamines ranging from 0.1 to 400 micromoles per liter. The cytostatic (anti-proliferative) effects and cytotoxic effects of Quilamine after 72 hours' treatment of the cells were assessed respectively by counting cell nuclei after DNA marking by the Hoechst 33342 fluorescent intercalant dye and by analysis of membrane damage detected by the dosing of the lactate dehydrogenase activity (LHD) in the supernatants.
A comparison was made of the cytostatic or anti-proliferative action and the cytotoxic action for 72 h of treatment by Quilamine HQ1-44 and 8-hydroxyquinoline and ICL670, on the CHO cell lines in the presence and without the presence of exogenous iron, in the form of Fe(III) citrate in a concentration of 20 micromoles per liter. The results obtained are shown in FIG. 4, FIG. 4A relating to the results on cell viability and FIG. 4B relating to the results on cell toxicity.

The nature of series [4]: Potentiometry: stability constants and pFe3+ of the iron complex. The format is physicochemical. On the procedure: The complexation affinity of Quilamine with the metal ion in the organism reflects the chelating capacity or chelating power of Quilamine. This affinity can be assessed by measuring the value of pW corresponding to −log of the concentration in free metal ion W, i.e. non-complexated by the Quilamine for a ratio of respective concentrations of Quilamine (10 micromoles per liter) and metal ion (1 micromole per liter) equal to 10, at 25° C. and pH 7.4. The higher the value of pW, the greater the affinity of Quilamine with metal ion. The affinity of Quilamine with iron in its ferric form (Fe(III)) and its ferrous form (Fe(II)) is measured respectively by pFe^3+ and pFe^2+ at physiological pH (pH=7.4), at 25° C.
Potentiometry measurements were made in thermostated titration cells at 25±0.1° C., using a Metrohm 702 SM Titrino titrator connected to a Metrohm 6.0233.100. The ligand solution is prepared in a concentration of ˜1.5×10^−3 moles per liter, the solution of Fe^3+ is made from FeCl3 and titrated by complexation with a standard solution of EDTA (ethylenediaminetetracetic acid). The sample for the measurement contained approximately 0.03 millimoles per liter of ligand in a volume of 30 ml where the ionic strength is maintained at 0.1 mole per liter in using KNO3 as a support electrolyte. During the titrations, Fe^3+ is added to 0.45 or 0.9 equivalents of ligand. Each titration consists of 150-200 equilibrium points with pH varying from 2.0 to 11.5, and is repeated at least twice. The thermodynamic constants are computed with the software […] and the speciation diagram of the species is done by the Hyss program.

Series [5] is described as follows: Continuous variation method, absorption of the Quilamine-Fe(III) complex at 580 nm. The format is physicochemical. The settings on record: physiological pH. The method, then:
At physiological pH, the Quilamine forms a Quilamine-Fe(III) complex preferably having a ligand:metal stoichiometry of 2/1. The ligand:metal stoichiometry can for example be determined by the continuous variation method, using the characteristic transition in the absorption spectrum of the Quilamine-Fe(III) complex at 580 nm, for chelator and iron concentrations ranging from 0 to 500 micromoles per liter.
The interaction of Quilamine HQ1-44 with iron (Fe3+) was assessed by means of a characteristic transition at 580 nm, observed in the absorption spectrum of the complex of Quilamine HQ1-44 with Fe(III). The continuous variation method consist in measuring the quantity of complex formed between Quilamine and Fe(III) deduced from the value of absorption at 580 nm, in bringing about a variation of the ratio of the concentrations in Quilamine/Quilamine+Fe(III) for a total concentration of Quilamine+Fe(III) that is constant and equal to 100 micromoles per liter (Tris/HCl buffer 100 millimoles per liter, pH 7.4).

For `O=C(O)c1ccc(-n2nc(-c3ccccc3O)nc2-c2ccccc2O)cc1` [ICL670, reference compound], the “concentration of the cytotoxic constituent associated with release of LDH” value in the series with HepG2 cells [1] (HepG2, absence of exogenous iron) is “over 10 micromoles per liter”. In the series on HepG2 cells [1], the “influence of exogenous iron on the cytotoxic effect” value was “inhibition”. Moreover, the “influence of exogenous iron on the cytostatic effect” value in the series on HepG2 cells [2] is reported as “inhibition”. In addition, in the series with HepG2 cells [3], the IC50 worked out at 3.85 µM and the “% of HepG2 cells concerned by the anti-proliferative effect” value was found to be 72.5%. Further, in the series on Caco-2 cells, the “intra-cell iron and L-ferritin concentrations” value is on record as “intra-cell iron depletion”; the transferrin-soluble receptor entry was “no significant effect”. The “chelator concentration giving cytotoxic effect with release of LDH” value in the series on CHO cells is on record as “over 10 micromoles per liter”.

As for `NCCCCNCCCCNCc1ccc2cccc(O)c2n1` [HQ1-44, 2-[4-(4-aminobutyl)aminobutyl]aminomethylquinolin-8-ol], the “influence of PTS activation by DFMO pre-treatment on cytotoxicity” value in the series on HepG2 cells [1] (HepG2, concentrations greater than 50 micromoles per liter (50-100)) is “amplification”. Besides, the “influence of exogenous iron on the cytotoxic effect” value with HepG2 cells [1] is listed as “partially inhibited”. For the same molecule, the “influence of competitive inhibition of PTS by spermidine on the cytotoxic effects” value in the series on HepG2 cells [1] (HepG2, spermidine 50 micromoles per liter, Quilamine 50 to 100 micromoles per liter) is listed as “inhibition”. Also, the “influence of competitive inhibition of PTS by spermidine on the cytostatic effects” value with HepG2 cells [3] (HepG2, spermidine 50 micromoles per liter, Quilamine below 10 micromoles per liter) was “inhibition”. Besides, in the series with HepG2 cells [3], the IC50 came to 2.75 µM and the “% of HepG2 cells concerned by the anti-proliferative effect” value turned out to be 30%. Also, in series [4] (25.0° C., I = 0.1 M in KNO3), the “Constant of stability (log K), species FeL” value stood at 25.92; the “Constant of stability (log K), species FeL2” value is 7.8; the “Constant of stability (log K), species FeL2H” value is 10.2; the “Constant of stability (log K), species FeL2H2” value is recorded as 8.0. For the same molecule, in series [4] (25.0° C., I = 0.1 M in KNO3), the “Constant of stability (log K), species FeL2H3” value worked out at 8.2; the “Constant of stability (log K), species FeL(OH)” value was 7.37; the “Constant of stability (log K), species FeLH” value came to 6.65; the “Constant of stability (log K), species FeLH2” value came out at 2.88. The “pFe3+” value in series [4] (pH 7.4) came to 27. Also, in the series on Caco-2 cells, the “intra-cell iron and L-ferritin concentrations” value is reported as “intra-cell iron depletion”; the transferrin-soluble receptor entry is given as “no significant effect”. Further, the “ligand/iron stoichiometry of the complex with Fe(III)” value in series [5] is recorded as 2/1.
